Reference: US7932262B2 (Novartis AG, priority 2006, dated 2011)
Like-named read-outs stand apart in the source and are kept apart here.

What was measured:
A2780 cells = assay: Cell Proliferation Assay (Cell Titer Glo), A2780; assay type: cell-based; settings: Homo sapiens; Cell Proliferation Assay, A2780; read-out: CPEC50 A2780
Method: IV. Cell Proliferation Assay Protocol:
A2780, PC-3, or PC3MM cells were seeded at 1000 cells/well in 100 μL/well (10.000 cells/mL) growth media in 96-well plates. Cells were allowed to adhere to the bottom of plates for 3-5 hours in a 37° C. 5% CO2 incubator. Compounds were dissolved in DMSO and then transferred to the cell plates. The cells were incubated with the compounds for 3 days in a 37° C. 5% CO2 incubator. The growth medium containing the compounds was then removed from the cells and fresh medium was added, followed by 100 μL of Cell Titer Glo assay reagent (Promega). This mixture was shaken for 1 minute and then incubated without shaking for 10 minutes. Activity determinations for the compounds were made by detection on a Trilux Instrument.

PDK1 kinase = target: T1, PDK1 kinase (Homo sapiens, UniProt O15530); assay: PDK1 Kinase Alpha Screen Assay; assay type: biochemical
T1 sequence (O15530 1-556): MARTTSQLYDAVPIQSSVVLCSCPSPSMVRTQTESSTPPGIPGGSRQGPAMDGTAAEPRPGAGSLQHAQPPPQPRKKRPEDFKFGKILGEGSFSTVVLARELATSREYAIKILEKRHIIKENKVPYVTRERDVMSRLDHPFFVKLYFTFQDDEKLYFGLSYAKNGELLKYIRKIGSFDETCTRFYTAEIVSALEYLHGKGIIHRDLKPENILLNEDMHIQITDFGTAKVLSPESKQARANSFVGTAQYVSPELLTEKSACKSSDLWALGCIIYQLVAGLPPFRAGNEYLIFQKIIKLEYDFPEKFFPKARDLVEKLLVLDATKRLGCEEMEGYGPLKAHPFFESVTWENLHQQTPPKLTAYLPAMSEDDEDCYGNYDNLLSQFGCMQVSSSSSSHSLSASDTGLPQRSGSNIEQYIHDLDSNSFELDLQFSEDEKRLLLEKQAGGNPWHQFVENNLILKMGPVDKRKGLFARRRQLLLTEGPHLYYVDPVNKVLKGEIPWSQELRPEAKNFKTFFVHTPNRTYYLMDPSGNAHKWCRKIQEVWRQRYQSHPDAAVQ
Outline: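 PDK1 phosphorylated 50 nM biotinylated PDK1-4 peptide with 10 uM ATP in Tris pH 7.5, 10 mM MgCl2, 2 mM DTT, 2.5% DMSO for 3-18 hours. After EDTA stop, phosphopeptide was detected by AlphaScreen using phospho-(Ser/Thr) PKA substrate antibody with protein A/streptavidin beads, read after overnight incubation.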

PC-3 cells = assay: Cell Proliferation Assay (Cell Titer Glo), PC-3 cell line; assay type: cell-based; settings: Homo sapiens, PC-3, PC3 cells; read-out: CPEC50 PC3
Outline: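 PC-3 cells, 1000 cells/well, left to adhere 3-5 h, then exposed for 3 days at 37° C to compounds as 1:3 serial dilutions from 500× DMSO stocks diluted in growth medium. Medium then replaced with fresh medium and viability read by Cell Titer Glo luminescence.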

[1] = head of the second part of Table 4: BV11261, read-out: PDK1 BV11261

| EC50 (A2780 cells) [µM] | IC50 (PDK1 kinase; read-out: PDK1 IC50) [µM] | EC50 (PC-3 cells) [µM] | IC50 (PDK1 kinase; [1]) [µM] | SMILES |
| --- | --- | --- | --- | --- |
| – | – | < 5 | < 5 | C#Cc1cc(OC2CCNCC2)c2nc(Nc3ccc(C(=O)N4CCOCC4)cc3)ncc2c1Cl [Compound 1032, (4-(5-chloro-6-ethynyl-8-(piperidin-4-yloxy)quinazolin-2-ylamino)phenyl)(morpholino)methanone] |
| – | – | < 5 | < 5 | COc1c(-c2cnn(C)c2)cc(Cl)c2cnc(Nc3ccc(C(=O)N4CCOCC4)cc3)nc12 [Compound 1033, (4-(5-chloro-8-methoxy-7-(1-methyl-1H-pyrazol-4-yl)quinazolin-2-ylamino)phenyl)(morpholino)methanone] |
| – | – | < 5 | < 5 | COc1c(-c2cnn(C)c2)cc(Cl)c2cnc(Nc3ccc(C(=O)NC(C)C)cc3)nc12 [Compound 1034, 4-(5-chloro-8-methoxy-7-(1-methyl-1H-pyrazol-4-yl)quinazolin-2-ylamino)-N-isopropylbenzamide] |
| – | – | < 5 | < 5 | COc1c(-c2cnn(C)c2)cc(Cl)c2cnc(Nc3ccc(N4CCOCC4)cc3)nc12 [Compound 1035, 5-chloro-8-methoxy-7-(1-methyl-1H-pyrazol-4-yl)-N-(4-morpholinophenyl)quinazolin-2-amine] |
| – | – | < 5 | < 5 | COc1c(-c2cnn(C)c2)cc(Cl)c2cnc(Nc3cccc(N4CCOCC4)c3)nc12 [Compound 1036, 5-chloro-8-methoxy-7-(1-methyl-1H-pyrazol-4-yl)-N-(3-morpholinophenyl)quinazolin-2-amine] |
| – | – | < 5 | < 5 | COc1c(-c2cnn(C)c2)cc(Cl)c2cnc(Nc3cc(CN(C)C)cc(NC(C)=O)c3)nc12 [Compound 1037, N-(3-(5-chloro-8-methoxy-7-(1-methyl-1H-pyrazol-4-yl)quinazolin-2-ylamino)-5-((dimethylamino)methyl)phenyl)acetamide] |
| – | – | < 5 | < 5 | COc1c(-c2cnn(C)c2)cc(Cl)c2cnc(Nc3ccc(C(=O)NC4CC4)cc3)nc12 [Compound 1038, 4-(5-chloro-8-methoxy-7-(1-methyl-1H-pyrazol-4-yl)quinazolin-2-ylamino)-N-cyclopropylbenzamide] |
| – | – | < 5 | < 5 | C#Cc1cc2cnc(Nc3ccc(C(=O)NC(C)C)cc3)nc2cc1-c1ccc2c(c1)CCNC2=O [Compound 1039, 4-(6-ethynyl-7-(1-oxo-1,2,3,4-tetrahydroisoquinolin-6-yl)quinazolin-2-ylamino)-N-isopropylbenzamide] |
| – | – | 5 to 10 | < 5 | CC(C)NC(=O)c1ccc(Nc2ncc3ccc(-c4ccc5c(c4)CCNC5=O)cc3n2)cc1 [Compound 1040, N-isopropyl-4-(7-(1-oxo-1,2,3,4-tetrahydroisoquinolin-6-yl)quinazolin-2-ylamino)benzamide] |
| – | – | 5 to 10 | < 5 | C#Cc1cc2cnc(Nc3ccc(C(=O)N4CCOCC4)cc3)nc2cc1-c1ccc2c(c1)CCNC2=O [Compound 1041, 6-(6-ethynyl-2-(4-(morpholine-4-carbonyl)phenylamino)quinazolin-7-yl)-3,4-dihydroisoquinolin-1(2H)-one] |

The remaining lines, values behind:

| SMILES | EC50 (A2780 cells) [µM] | IC50 (PDK1 kinase; read-out: PDK1 IC50) [µM] | EC50 (PC-3 cells) [µM] | IC50 (PDK1 kinase; [1]) [µM] |
| --- | --- | --- | --- | --- |
| COc1ncccc1-c1ccc2cnc(Nc3ccc(S(N)(=O)=O)cc3)nc2c1 [Compound 314, 4-(7-(2-methoxypyridin-3-yl)quinazolin-2-ylamino)benzenesulfonamide] | 5 to 10 | – | – | – |
| Cn1cc(-c2ccc3cnc(Nc4ccc(S(=O)(=O)N5CCOCC5)cc4)nc3c2)cn1 [Compound 317, 7-(1-methyl-1H-pyrazol-4-yl)-N-(4-(morpholinosulfonyl)phenyl)quinazolin-2-amine] | < 5 | – | – | – |
| NS(=O)(=O)c1ccc(Nc2ncc3cccc(C(=O)NCc4ccccn4)c3n2)cc1 [Compound 419, N-(pyridin-2-ylmethyl)-2-(4-sulfamoylphenylamino)quinazoline-8-carboxamide] | 5 to 10 | – | – | – |
| CC(C)(C)OC(=O)N1CCC(Oc2c(Br)ccc3cnc(Nc4ccc(S(N)(=O)=O)cc4)nc23)CC1 [Compound 420, tert-butyl 4-(7-bromo-2-(4-sulfamoylphenylamino)quinazolin-8-yloxy)piperidine-1-carboxylate] | < 5 | – | – | – |
| CC(C)Oc1cccc2cnc(Nc3cccnc3)nc12 [Compound 522, 8-isopropoxy-N-(pyridin-3-yl)quinazolin-2-amine] | 5 to 10 | – | – | – |
| CC(C)Oc1cccc2cnc(NC3CCN(C)CC3)nc12 [Compound 557, 8-isopropoxy-N-(1-methylpiperidin-4-yl)quinazolin-2-amine] | 5 to 10 | – | – | – |
| CC(C)Oc1cccc2cnc(NCc3ccc(S(N)(=O)=O)cc3)nc12 [Compound 558, 4-((8-isopropoxyquinazolin-2-ylamino)methyl)benzenesulfonamide] | 5 to 10 | – | – | – |
| COc1cc(-c2ccc3cnc(Nc4ccc(S(N)(=O)=O)cc4)nc3c2)ccn1 [Compound 560, 4-(7-(2-methoxypyridin-4-yl)quinazolin-2-ylamino)benzenesulfonamide] | 5 to 10 | – | – | – |
| CNC(=O)c1cc(Oc2ccc3cnc(Nc4ccc(S(N)(=O)=O)cc4)nc3c2)ccn1 [Compound 563, N-methyl-4-(2-(4-sulfamoylphenylamino)quinazolin-7-yloxy)picolinamide] | 5 to 10 | – | – | – |
| CNC(=O)c1cccc2cnc(Nc3ccc(S(N)(=O)=O)cc3)nc12 [Compound 623, N-methyl-2-(4-sulfamoylphenylamino)quinazoline-8-carboxamide] | < 5 | – | – | – |
| NS(=O)(=O)c1ccc(Nc2ncc3cccc(C(=O)NC4CCOCC4)c3n2)cc1 [Compound 625, 2-(4-sulfamoylphenylamino)-N-(tetrahydro-2H-pyran-4-yl)quinazoline-8-carboxamide] | < 5 | – | – | – |
| CC(=O)NCCNC(=O)c1cccc2cnc(Nc3ccc(S(N)(=O)=O)cc3)nc12 [Compound 626, N-(2-acetamidoethyl)-2-(4-sulfamoylphenylamino)quinazoline-8-carboxamide] | 5 to 10 | – | – | – |
| CC(=O)Nc1ccc(Nc2ncc3cccc(-c4ccc(NCCN5CCCC5)nc4)c3n2)cc1C [Compound 1027, N-(2-methyl-4-(8-(6-(2-(pyrrolidin-1-yl)ethylamino)pyridin-3-yl)quinazolin-2-ylamino)phenyl)acetamide] | – | < 5 | < 5 | – |
| CS(=O)(=O)c1ccc(Nc2ncc3cccc(-c4ccc(NCCN5CCCC5)nc4)c3n2)cc1 [Compound 1028, N-(4-(methylsulfonyl)phenyl)-8-(6-(2-(pyrrolidin-1-yl)ethylamino)pyridin-3-yl)quinazolin-2-amine] | – | < 5 | 5 to 10 | – |
| CN1CCN(c2ccc(-c3cccc4cnc(Nc5ccc(S(=O)(=O)N6CCOCC6)cc5)nc34)cn2)CC1 [Compound 1029, 8-(6-(4-methylpiperazin-1-yl)pyridin-3-yl)-N-(4-(morpholinosulfonyl)phenyl)quinazolin-2-amine] | – | < 5 | < 5 | – |
| Cc1cc(Nc2ncc3ccc(O)c(C4CCN(C(C)C)CC4)c3n2)ccc1F [Compound 1030, 2-(4-fluoro-3-methylphenylamino)-8-(1-isopropylpipenidin-4-yl)quinazolin-7-ol] | – | < 5 | 5 to 10 | – |
| C#Cc1cc(OC2CCCNCC2)c2nc(Nc3ccc(N4CCOCC4)cc3)ncc2c1 (stereo not drawn) [Compound 1031, 8-(azepan-4-yloxy)-6-ethynyl-N-(4-morpholinophenyl)quinazolin-2-amine] | – | – | < 5 | < 5 |
